# Reference: the supplement of paper PMC10307832
# Key:
# Experiment in all cases: relative viability (nuclei count vs DMSO), 5 days (fraction); higher = more cells survive
# [1] = system: LOU-NH91
# Method in brief: (§1)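 Relative viability equals treated-well nuclei counts divided by vehicle-well nuclei counts. Counts came from 4× images of lung cancer cell lines grown in 1536-well plates for 5 days after pin-tool dosing on the day after seeding. Dosing used one drug alone or a fixed anchor-drug dose plus five library-drug doses (not always all listed) in √10 steps, and values are medians of duplicate plates.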
# [2] = system: ABC-1
# Method in brief: as §1
# [3] = system: NCI-H2170
# Method in brief: as §1
# [4] = system: NCI-H2085
# Method in brief: as §1
# [5] = system: NCI-H2023
# Method in brief: as §1
# [6] = system: LCLC-97TM1
# Method in brief: as §1
# [7] = system: NCI-H23
# Method in brief: as §1
# [8] = system: NCI-H2342
# Method in brief: as §1
# [9] = system: NCI-H2009
# Method in brief: as §1
# [10] = system: NCI-H1437
# Method in brief: as §1
# [11] = system: ChaGo-K-1
# Method in brief: as §1
# [12] = system: NCI-H1623
# Method in brief: as §1
# [13] = system: NCI-H2405
# Method in brief: as §1
# [14] = system: UMC-11
# Method in brief: as §1
# [15] = system: RERF-LC-KJ
# Method in brief: as §1
# [16] = system: HOP-62
# Method in brief: as §1
# [17] = system: NCI-H322M
# Method in brief: as §1
# [18] = system: NCI-H1792
# Method in brief: as §1
# [19] = system: SK-MES-1
# Method in brief: as §1
# [20] = system: HCC-78
# Method in brief: as §1
# [21] = system: NCI-H727
# Method in brief: as §1
# [22] = system: NCI-H650
# Method in brief: as §1
# [23] = system: NCI-H1355
# Method in brief: as §1
# [24] = system: NCI-H1755
# Method in brief: as §1
smiles,measurement,setting,value
CCCCCCCCCCCC1=C(O)C(=O)C=C(O)C1=O [Embelin] + N=C(N)NC(=N)NCCc1ccccc1 [Phenformin] (partner 250 µM),relative viability,[1]; first compound 0.08 µM,0.757
same,relative viability,[1]; first compound 0.8 µM,0.895
same,relative viability,[1]; first compound 2.53 µM,0.566
same,relative viability,[1]; first compound 8 µM,0.492
same,relative viability,[2]; first compound 0.08 µM,0.251
same,relative viability,[2]; first compound 0.8 µM,0.237
same,relative viability,[2]; first compound 2.53 µM,0.256
same,relative viability,[2]; first compound 8 µM,0.194
same,relative viability,[3]; first compound 0.08 µM,0.438
same,relative viability,[3]; first compound 0.8 µM,0.489
same,relative viability,[3]; first compound 2.53 µM,0.427
same,relative viability,[3]; first compound 8 µM,0.444
same,relative viability,[4]; first compound 0.08 µM,0.708
same,relative viability,[4]; first compound 0.8 µM,0.884
same,relative viability,[4]; first compound 2.53 µM,0.73
same,relative viability,[4]; first compound 8 µM,0.664
same,relative viability,[5]; first compound 0.08 µM,0.383
same,relative viability,[5]; first compound 0.8 µM,0.469
same,relative viability,[5]; first compound 2.53 µM,0.418
same,relative viability,[5]; first compound 8 µM,0.327
same,relative viability,[6]; first compound 0.08 µM,0.452
same,relative viability,[6]; first compound 0.8 µM,0.432
same,relative viability,[6]; first compound 2.53 µM,0.465
same,relative viability,[6]; first compound 8 µM,0.469
same,relative viability,[7]; first compound 0.08 µM,0.771
same,relative viability,[7]; first compound 0.8 µM,0.753
same,relative viability,[7]; first compound 2.53 µM,0.882
same,relative viability,[7]; first compound 8 µM,0.693
same,relative viability,[8]; first compound 0.08 µM,0.594
same,relative viability,[8]; first compound 0.8 µM,0.551
same,relative viability,[8]; first compound 2.53 µM,0.701
same,relative viability,[8]; first compound 8 µM,0.516
same,relative viability,[9]; first compound 0.08 µM,0.495
same,relative viability,[9]; first compound 0.8 µM,0.598
same,relative viability,[9]; first compound 2.53 µM,0.44
same,relative viability,[9]; first compound 8 µM,0.295
same,relative viability,[10]; first compound 0.08 µM,0.4
same,relative viability,[10]; first compound 0.8 µM,0.324
same,relative viability,[10]; first compound 2.53 µM,0.298
same,relative viability,[10]; first compound 8 µM,0.243
same,relative viability,[11]; first compound 0.08 µM,0.547
same,relative viability,[11]; first compound 0.8 µM,0.503
same,relative viability,[11]; first compound 2.53 µM,0.586
same,relative viability,[11]; first compound 8 µM,0.482
same,relative viability,[12]; first compound 0.08 µM,0.601
same,relative viability,[12]; first compound 0.8 µM,0.612
same,relative viability,[12]; first compound 2.53 µM,0.62
same,relative viability,[12]; first compound 8 µM,0.602
same,relative viability,[13]; first compound 0.08 µM,0.408
same,relative viability,[13]; first compound 0.8 µM,0.445
same,relative viability,[13]; first compound 2.53 µM,0.367
same,relative viability,[13]; first compound 8 µM,0.341
same,relative viability,[14]; first compound 0.08 µM,0.33
same,relative viability,[14]; first compound 0.8 µM,0.339
same,relative viability,[14]; first compound 2.53 µM,0.323
same,relative viability,[14]; first compound 8 µM,0.314
same,relative viability,[15]; first compound 0.08 µM,0.431
same,relative viability,[15]; first compound 0.8 µM,0.461
same,relative viability,[15]; first compound 2.53 µM,0.418
same,relative viability,[15]; first compound 8 µM,0.356
same,relative viability,[16]; first compound 0.08 µM,0.649
same,relative viability,[16]; first compound 0.8 µM,0.701
same,relative viability,[16]; first compound 2.53 µM,0.777
same,relative viability,[16]; first compound 8 µM,0.719
same,relative viability,[17]; first compound 0.08 µM,0.757
same,relative viability,[17]; first compound 0.8 µM,0.8
same,relative viability,[17]; first compound 2.53 µM,0.913
same,relative viability,[17]; first compound 8 µM,0.677
same,relative viability,[18]; first compound 0.8 µM,0.424
same,relative viability,[18]; first compound 2.53 µM,0.271
same,relative viability,[18]; first compound 8 µM,0.218
same,relative viability,[19]; first compound 0.08 µM,0.67
same,relative viability,[19]; first compound 0.8 µM,0.694
same,relative viability,[19]; first compound 2.53 µM,0.75
same,relative viability,[19]; first compound 8 µM,0.585
same,relative viability,[20]; first compound 0.08 µM,0.661
same,relative viability,[20]; first compound 0.8 µM,0.729
same,relative viability,[20]; first compound 2.53 µM,0.761
same,relative viability,[20]; first compound 8 µM,0.929
same,relative viability,[21]; first compound 0.08 µM,0.563
same,relative viability,[21]; first compound 0.8 µM,0.597
same,relative viability,[21]; first compound 2.53 µM,0.513
same,relative viability,[21]; first compound 8 µM,0.5
same,relative viability,[22]; first compound 0.08 µM,0.436
same,relative viability,[22]; first compound 0.8 µM,0.524
same,relative viability,[22]; first compound 2.53 µM,0.312
same,relative viability,[22]; first compound 8 µM,0.44
same,relative viability,[23]; first compound 0.08 µM,0.482
same,relative viability,[23]; first compound 0.8 µM,0.535
same,relative viability,[23]; first compound 2.53 µM,0.442
same,relative viability,[23]; first compound 8 µM,0.392
same,relative viability,[24]; first compound 0.08 µM,0.646
same,relative viability,[24]; first compound 0.8 µM,0.656
same,relative viability,[24]; first compound 2.53 µM,0.608
same,relative viability,[24]; first compound 8 µM,0.6
